Laboratory results from patent US20060242739A1, “Plant nucleotide-sugar pyrophosphatase/phosphodiesterase (nppase), method of obtaining same and use of same in the production of assay devices and in the production of transgenic plants” (Universidad Publica De Navarra, priority 2002, published 2006).

Assays:
[1] = biological target: T1, NPPase from barley leaves (Hordeum vulgare, UniProt Q687E1); assay: Enzymatic test of soluble NPPase from barley leaves: kinetic parameters, substrate specificity, effectors; details: for effect on NPPase activity (inhibition) / hydrolysis by NPPase (substrate recognition): qualitative; for Vmax: Vmax in % in relation to ADPG, NPPase from barley leaves; for Km: substrate of NPPase from barley leaves
T1 sequence (Q687E1 19-368): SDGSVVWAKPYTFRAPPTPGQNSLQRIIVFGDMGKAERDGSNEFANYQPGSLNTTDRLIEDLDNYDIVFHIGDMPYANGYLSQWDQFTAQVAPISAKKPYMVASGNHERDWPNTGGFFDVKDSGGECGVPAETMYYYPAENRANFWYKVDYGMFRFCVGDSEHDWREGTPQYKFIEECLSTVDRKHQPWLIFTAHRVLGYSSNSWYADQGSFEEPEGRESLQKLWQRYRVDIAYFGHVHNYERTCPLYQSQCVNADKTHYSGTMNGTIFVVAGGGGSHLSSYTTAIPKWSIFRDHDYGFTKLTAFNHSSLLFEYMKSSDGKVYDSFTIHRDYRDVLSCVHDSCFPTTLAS

NPPase from rice leaves = NPPase from rice leaves (Oryza sativa, UniProt Q0X0G2); assay: Kinetic parameters and substrate specificity of the NPPase from rice leaves; details: substrate of NPPase from rice leaves
NPPase from rice leaves, sequence (Q0X0G2 26-623 limits assumed): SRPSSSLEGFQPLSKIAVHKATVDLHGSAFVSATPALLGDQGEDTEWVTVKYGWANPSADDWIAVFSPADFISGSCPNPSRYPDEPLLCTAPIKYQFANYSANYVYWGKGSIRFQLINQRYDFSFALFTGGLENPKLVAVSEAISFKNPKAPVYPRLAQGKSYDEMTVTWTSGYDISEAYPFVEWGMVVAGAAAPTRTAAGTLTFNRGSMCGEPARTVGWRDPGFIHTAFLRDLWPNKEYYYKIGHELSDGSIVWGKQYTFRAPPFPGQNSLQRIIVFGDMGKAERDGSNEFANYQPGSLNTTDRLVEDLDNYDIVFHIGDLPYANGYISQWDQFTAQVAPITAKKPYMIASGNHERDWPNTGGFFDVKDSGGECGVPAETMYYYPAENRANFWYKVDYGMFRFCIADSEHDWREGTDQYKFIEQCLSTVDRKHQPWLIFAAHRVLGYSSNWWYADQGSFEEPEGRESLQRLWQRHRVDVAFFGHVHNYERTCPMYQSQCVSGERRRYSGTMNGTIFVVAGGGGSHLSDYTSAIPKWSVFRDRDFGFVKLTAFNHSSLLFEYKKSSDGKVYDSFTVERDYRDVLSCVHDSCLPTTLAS

Row | Compound | effect on NPPase activity (inhibition) [1] | hydrolysis by NPPase (substrate recognition) [1] | Vmax [1] | also measured
1 | Nc1ncnc2c1ncn2[C@@H]1O[C@H](COP(=O)(O)O)[C@@H](O)[C@H]1O [AMP] | inhibited | does not hydrolyse | – | –
2 | Nc1ccn([C@@H]2O[C@H](COP(=O)(O)OP(=O)(O)O[C@H]3O[C@H](CO)[C@@H](O)[C@H](O)[C@H]3O)[C@@H](O)[C@H]2O)c(=O)n1 [CDPG, CDP-glucose] | – | – | 114% | –
3 | Nc1ncnc2c1ncn2[C@@H]1O[C@H](COP(=O)(O)OP(=O)(O)O[C@H]2O[C@H](CO)[C@@H](O)[C@H](O)[C@@H]2O)[C@@H](O)[C@H]1O [ADPmannose, ADP-mannose] | – | – | 30% | –
4 | Nc1nc2c(ncn2[C@@H]2O[C@H](COP(=O)(O)OP(=O)(O)O[C@H]3O[C@H](CO)[C@@H](O)[C@H](O)[C@H]3O)[C@@H](O)[C@H]2O)c(=O)[nH]1 [GDP-glucose] | – | recognizes | – | –
5 | arsenate | strongly inhibited | – | – | –
6 | NC(=O)c1ccc[n+]([C@@H]2O[C@H](COP(=O)(O)OP(=O)(O)OC[C@H]3O[C@@H](n4cnc5c(N)ncnc54)[C@H](O)[C@@H]3O)[C@@H](O)[C@H]2O)c1 [NAD^+] | – | – | 100% | –
7 | Nc1ncnc2c1ncn2[C@@H]1O[C@H](COP(=O)(O)O)[C@@H](O)[C@H]1O [PAP, adenosine-5′-phosphate] | – | – | n.q. | Km [1]: n.q.
8 | O=[N+]([O-])c1ccc(OP(=O)(O)O)cc1 [PNPP] | – | – | 100% | –
9 | NC(=O)c1ccc[n+]([C@@H]2O[C@H](COP(=O)([O-])OP(=O)(O)OC[C@H]3O[C@@H](n4cnc5c(N)ncnc54)[C@H](OP(=O)(O)O)[C@@H]3O)[C@@H](O)[C@H]2O)c1 [NADP^+] | – | – | n.q. | Km [1]: n.q.
10 | [O]=[Mo](=[O])([O-])[O-] [molybdate] | strongly inhibited | – | – | –
11 | O=[N+]([O-])c1ccc(OP(=O)(O)Oc2ccc([N+](=O)[O-])cc2)cc1 [bis-PNPP, bis-paranitrophenylphosphate] | – | hydrolyses | 100% | –
12 | O=C[C@H](O)[C@@H](O)[C@H](O)[C@H](O)COP(=O)(O)O [G6P, glucose-6-phosphate] | – | does not hydrolyse | – | –
13 | OCCS [β-mercaptoethanol] | not affected | – | – | –
14 | ADP-ribose [ADPribose] | – | – | 100% | –
15 | Nc1ncnc2c1ncn2[C@@H]1O[C@H](COP(=O)(O)OS(=O)(=O)O)[C@@H](O)[C@H]1O [APS, adenosine 5′-phosphosulphate] | – | – | – | Vmax (NPPase from rice leaves): 282 μmol min^−1 (mg protein)^−1
16 | O=C(O)[C@H](O)COP(=O)(O)O [3-phosphoglycerate] | inhibited | does not hydrolyse | – | –
17 | Nc1ncnc2c1ncn2[C@@H]1O[C@H](COP(=O)(O)OP(=O)(O)O)[C@@H](O)[C@H]1O [ADP] | inhibited | – | 40% | –
18 | Nc1nc2c(ncn2[C@@H]2O[C@H](COP(=O)(O)OP(=O)(O)O[C@H]3O[C@H](CO)[C@@H](O)[C@H](O)[C@@H]3O)[C@@H](O)[C@H]2O)c(=O)[nH]1 [GDPmannose, GDP-mannose] | – | – | 30% | –
19 | Nc1ncnc2c1ncn2[C@@H]1O[C@H](COP(=O)(O)OP(=O)(O)O[C@H]2O[C@H](CO)[C@@H](O)[C@H](O)[C@H]2O)[C@@H](O)[C@H]1O [ADPG, ADPglucose] | – | catalyses the hydrolysis | 100% | –
20 | O=P(O)(O)OP(=O)(O)O [PPi, inorganic pyrophosphate] | – | – | – | Vmax (NPPase from rice leaves): 176 μmol min^−1 (mg protein)^−1
